# Assay results as given in US9457033B2, “Steroid alkaloids and uses thereof as antimicrobial agents against electron transport-deficient microbes and as potentiators for antimicrobial agents against pathogenic bacteria” (priority 2011, dated 2016).
# Marks after values point to notes of the source that are not given here.
# Test system: S. aureus ATCC 29213 in co-culture with P. aeruginosa PA14
# Test: Viability in co-culture with P. aeruginosa PA14, CAMHB
# Format: cell-based, Staphylococcus aureus
# Conditions: for Viability of S. aureus: SA + PA + TO at 8 μg/ml
# Text: Bacteria were sampled, serially diluted and plated on tryptic soy agar for CFU determinations. […] Mannitol-salt agar plates were used to selectively evaluate S. aureus CFU when in co-culture with P. aeruginosa.
structure (smiles),measurement,setting,value
"C[C@H]1CC[C@]2(NC1)O[C@H]1C[C@H]3[C@@H]4CC[C@H]5C[C@@H](O)CC[C@]5(C)[C@H]4CC[C@]3(C)[C@H]1[C@@H]2C [Tomatidine, tomatidine]",Viability of S. aureus,0 h,5.4 ± 0.1 Log10 CFU/ml
same,Viability of S. aureus,24 h,2 ± 1 ^b Log10 CFU/ml
same,type of antibacterial effect,"in co-culture with P. aeruginosa, tomatidine 8 μg/ml",bactericidal
